# Laboratory results from PMC5617480 (Oncotarget, 2017).
# Assays:
# Experiment in all cases: Cytotoxicity assay (MTT assay)
# Assay type in all cases: cell-based, human
# MGC80-3 cells = details: for Inhibitory rates (%): MGC80-3, 20 μM
# Procedure: (§1) To evaluate the cytotoxicity of chiral platinum(II) complexes, HeLa, BEL-7402, MGC80-3, BEL-7404, A549, Hep-G2 and HL-7702 cells (normal cells) were treated with varying concentrations of complexes 1–6 and cisplatin (positive control, cisplatin was dissolved at a concentration of 1.0 mM in 0.154 M NaCl) for 24 h and 48 h. The cell viability of each experimental group was examined by MTT assays. […] [61, 62]. […] Therefore, complex 6 (10 μM) was selected for cell apoptosis analysis by flow-cytometry, RT-PCR, caspase-3/9 activation assays, western blot and transfection assays in BEL-7404 cells for 24 h. In addition, this observed difference in in vitro cytotoxicity between the three complexes 4–6 could be due to the influence of the chirality of the FOA ligand [68]. […]
# (§2) Materials 100 U/mL penicillin and 100 μg/mL streptomycin in 25 cm2 culture flasks at 37 °C humidified atmosphere with Tris, RNase A, and propidium iodide (PI) were 5% CO2. All cells to be tested in the following assays have purchased from Sigma. The antibody of mutp53, a passage number of 3-6. […]
# (§3) were purchased from Abcam. Unless otherwise stated, BEL-7404, A549, and Hep-G2 cancer-cell lines and HL-spectroscopic titration experiments were carried out in 7702 normal cells) per well were seeded in triplicate in TBS (10 mM pH7.35 Tris-HCl, containing 100 mM KCl). 96-well plates and incubated for 24 h at 37 °C and 5.0% The total RNA isolation kit and the two-step RT-PCR kit CO2/95.0% air. Then graded amounts of compound were purchased from TIANGEN. DNA oligomers (highly added to the wells in 10.0 μL of FBS free culture medium polymerized stored at 4 °C; long-term storage at −20 °C) and the plates were incubated in a 5% CO2 humidified are listed in Supplementary Table 1 and were obtained from atmosphere for 24 h and 48 h. Six replica wells were used Shanghai Sangon Biological Engineering Technology & as controls. Each the cells were grew for 12.0 h before Services (Shanghai, China). All tumor cell lines (HeLa, treatment to reach 70.0% confluency and 20.0 μL of tested BEL-7402, MGC80-3, BEL-7404, A549, Hep-G2 cancer- various concentrations of compounds were added to each cell lines and normal liver cell line HL-7702) were obtained well. The final concentration of the tested complexes from the Shanghai Institute for Biological Science (China). or compounds were kept at 1.25, 2.5, 5, 10, 20 μM, Stock solutions of all the compounds (2.0 mM) were made respectively. After 24 h or 48 h of culture, 0.1 mg of in DMSO, and further dilutions to working concentrations MTT (in 20 μL of PBS) was added to each well, and cells were made with corresponding buffer. were incubated at 37 °C for 6 h. The formed formazan crystals were then dissolved in 100 μL of DMSO and the Instrumentation absorbance was read by enzyme labeling instrument with Infrared spectra were obtained on a Perkine Elmer 490/630 nm double wavelength measurement. The final FT-IR Spectrometer. Elemental analyses (C, H, N) IC50 values were calculated by the Bliss method (n = 5). were carried out on a Perkin Elmer Series II CHNS/O All tests were repeated in at least three independent trials. […]
# (§4) 10.0 min. The cell pellet obtained was dissolved in 1.0 M
# (§5) The region between 200 and 400 nm was scanned for each NaOH (1.0 mL) and diluted with 2.0% (v/v) HNO3 (5.0 sample. MTT assay was performed on M1000 microplate mL) for determining whole cell Pt content. Another set reader (Tecan Trading Co. Ltd, Shanghai, China). Cell was treated similarly, nuclear proteins, nuclear fraction, cycle and apoptosis analysis was recorded on FACS Aria cytoplasmic protein, membrane proteins and other fraction II Flow Cytometer (BD Biocsiences, San Jose, USA). were isolated as described by Chen and Schreiber et al. And the each final solution was made up to 5.0 mL
# (§6) Cytotoxicity assay (MTT assay) using 2.0% (v/v) HNO3. The amount of Pt taken up by the cells was determined by ICP-MS. The instrument was […]
# BEL-7402 cells = details: for Inhibitory rates (%): BEL-7402, 20 μM
# Procedure: as §1, §2, §3, §4, §5, §6
# BEL-7404 cells = details: for Inhibitory rates (%): BEL-7404, 20 μM
# Procedure: as §1, §2, §3, §4, §5, §6
# A549 cells = details: for Inhibitory rates (%): A549, 20 μM
# Procedure: as §1, §2, §3, §4, §5, §6
# Hep-G2 cells = details: for Inhibitory rates (%): Hep-G2, 20 μM
# Procedure: as §1, §2, §3, §4, §5, §6
# HeLa cells = details: for Inhibitory rates (%): 20 μM
# Procedure: as §1, §2, §3, §4, §5, §6
# HL-7702 normal cells = details: for Inhibitory rates (%): HL-7702, 20 μM
# Procedure: To evaluate the cytotoxicity of chiral platinum(II) complexes, HeLa, BEL-7402, MGC80-3, BEL-7404, A549, Hep-G2 and HL-7702 cells (normal cells) were treated with varying concentrations of complexes 1–6 and cisplatin (positive control, cisplatin was dissolved at a concentration of 1.0 mM in 0.154 M NaCl) for 24 h and 48 h. The cell viability of each experimental group was examined by MTT assays. […] [61, 62].
# as §2, §3
Molecule,Inhibitory rates (%) (MGC80-3 cells; 24 h),Inhibitory rates (%) (MGC80-3 cells; 48 h),"IC50 (MGC80-3 cells; MGC80-3, 24 h) [µM]",Inhibitory rates (%) (BEL-7402 cells; 24 h),Inhibitory rates (%) (BEL-7402 cells; 48 h),"IC50 (BEL-7402 cells; BEL-7402, 24 h) [µM]",Inhibitory rates (%) (BEL-7404 cells; 24 h),Inhibitory rates (%) (BEL-7404 cells; 48 h),"IC50 (BEL-7404 cells; BEL-7404, 24 h) [µM]",Inhibitory rates (%) (A549 cells; 24 h),Inhibitory rates (%) (A549 cells; 48 h),"IC50 (A549 cells; A549, 24 h) [µM]",Inhibitory rates (%) (Hep-G2 cells; 24 h),Inhibitory rates (%) (Hep-G2 cells; 48 h),"IC50 (Hep-G2 cells; Hep-G2, 24 h) [µM]",Inhibitory rates (%) (HeLa cells; 24 h),Inhibitory rates (%) (HeLa cells; 48 h),IC50 (HeLa cells; 24 h) [µM],"selectivity index factor, IC50 (normal HL-7702 cells)/IC50 (BEL-7404 tumor cells) (HL-7702 normal cells; 24 h)",Inhibitory rates (%) (HL-7702 normal cells; 24 h),also measured
cis-[PtCl2(S-(–)-FOA)] [complex 6],25.1 ± 0.5,26.5 ± 1.1,72.8 ± 0.4,50.5 ± 1.6,58.4 ± 2.1,20.6 ± 1.5,70.9 ± 0.7,81.3 ± 0.4,10.1 ± 0.6,65.3 ± 1.3,84.7 ± 2.2,15.3 ± 1.2,30.2 ± 1.6,39.3 ± 2.2,50.1 ± 1.8,21.1 ± 0.9,25.1 ± 1.4,78.2 ± 0.9,11.8,20.7 ± 1.6,"IC50 (MGC80-3 cells; MGC80-3, 48 h): 31.5 ± 1.7 µM; IC50 (BEL-7402 cells; BEL-7402, 48 h): 15.3 ± 2.2 µM; IC50 (BEL-7404 cells; BEL-7404, 48 h): 7.9 ± 0.3 µM; IC50 (A549 cells; A549, 48 h): 8.2 ± 0.5 µM; IC50 (Hep-G2 cells; Hep-G2, 48 h): 17.7 ± 1.2 µM; IC50 (HeLa cells; 48 h): 31.8 ± 0.7 µM; selectivity index factor, IC50 (normal HL-7702 cells)/IC50 (BEL-7404 tumor cells) (HL-7702 normal cells; 48 h): 10.7; Inhibitory rates (%) (HL-7702 normal cells; 48 h): 33.9 ± 2.2%; IC50 (HL-7702 normal cells; HL-7702, 24 h): 119 ± 1.5 µM; IC50 (HL-7702 normal cells; HL-7702, 48 h): 84.2 ± 1.2 µM"
"N.N.[Cl][Pt][Cl] [cisplatin, reference compound]",61.5 ± 1.2,71.4 ± 1.5,16.3 ± 1.3,55.4 ± 0.9,65.7 ± 1.2,17.5 ± 0.6,45.5 ± 2.1,54.2 ± 1.4,24.8 ± 1.8,48.6 ± 0.4,51.1 ± 3.4,21.3 ± 0.7,51.6 ± 0.6,60.6 ± 1.0,19.5 ± 0.5,64.3 ± 1.4,80.6 ± 0.9,15.8 ± 1.2,0.8,59.6 ± 1.2,"IC50 (MGC80-3 cells; MGC80-3, 48 h): 5.4 ± 0.5 µM; IC50 (BEL-7402 cells; BEL-7402, 48 h): 13.5 ± 0.9 µM; IC50 (BEL-7404 cells; BEL-7404, 48 h): 15.8 ± 0.7 µM; IC50 (A549 cells; A549, 48 h): 17 ± 2.3 µM; IC50 (Hep-G2 cells; Hep-G2, 48 h): 9.5 ± 0.4 µM; IC50 (HeLa cells; 48 h): 5.8 ± 0.9 µM; selectivity index factor, IC50 (normal HL-7702 cells)/IC50 (BEL-7404 tumor cells) (HL-7702 normal cells; 48 h): 1.0; Inhibitory rates (%) (HL-7702 normal cells; 48 h): 73.6 ± 2.3%; IC50 (HL-7702 normal cells; HL-7702, 24 h): 19.8 ± 1.3 µM; IC50 (HL-7702 normal cells; HL-7702, 48 h): 15.6 ± 0.3 µM"
"O=C(NC[C@H](O)CO)c1cnc2c3c(cccc13)-c1ccccc1C2=O.[Cl-].[Cl-].[Pt+2] [ligand 3, S-(–)-FOA]",24.2 ± 0.5,28.2 ± 1.4,78.2 ± 0.7,35.1 ± 1.3,41.8 ± 2.5,45.8 ± 1.4,42.8 ± 0.4,64.8 ± 1.3,30.1 ± 0.7,37.2 ± 0.8,51.2 ± 3.4,36.4 ± 1,24.9 ± 0.8,29.3 ± 0.9,70.1 ± 0.8,31.2 ± 0.4,36.6 ± 1.5,43.2 ± 0.4,3.5,23.4 ± 0.9,"Inhibitory rates (%) (HL-7702 normal cells; 48 h): 27.5 ± 1.2%; IC50 (HL-7702 normal cells; HL-7702, 24 h): 105.3 ± 1 µM"
cis-[PtCl2(R-(+)-FOA)] [complex 5],11.3 ± 0.4,19.8 ± 1.8,135.1 ± 0.5,35.6 ± 2.1,42.1 ± 0.7,42.3 ± 1.9,46.1 ± 1.1,55.9 ± 2.7,22.5 ± 1.3,28.9 ± 0.5,35.9 ± 2.6,56.3 ± 0.7,16.5 ± 1.4,23.3 ± 0.5,93.4 ± 1.2,8.6 ± 1.5,9.9 ± 0.7,168.6 ± 1.4,3.6,30.6 ± 2.1,"IC50 (MGC80-3 cells; MGC80-3, 48 h): 37.4 ± 1.2 µM; IC50 (BEL-7402 cells; BEL-7402, 48 h): 38.4 ± 1.4 µM; IC50 (BEL-7404 cells; BEL-7404, 48 h): 14.5 ± 0.5 µM; IC50 (A549 cells; A549, 48 h): 17.2 ± 0.1 µM; IC50 (Hep-G2 cells; Hep-G2, 48 h): 35.7 ± 1.5 µM; IC50 (HeLa cells; 48 h): 64.2 ± 0.2 µM; selectivity index factor, IC50 (normal HL-7702 cells)/IC50 (BEL-7404 tumor cells) (HL-7702 normal cells; 48 h): 3.9; Inhibitory rates (%) (HL-7702 normal cells; 48 h): 37.5 ± 5.3%; IC50 (HL-7702 normal cells; HL-7702, 24 h): 80.1 ± 1.8 µM; IC50 (HL-7702 normal cells; HL-7702, 48 h): 55.8 ± 3.1 µM"
"O=C(NC[C@@H](O)CO)c1cnc2c3c(cccc13)-c1ccccc1C2=O.[Cl-].[Cl-].[Pt+2] [ligand 2, R-(+)-FOA]",9.6 ± 0.6,19.6 ± 0.8,158.1 ± 0.6,17.0 ± 0.6,22.3 ± 1.1,94.1 ± 0.5,25.1 ± 1.2,50.0 ± 0.6,72.3 ± 1,28.9 ± 1.4,47.9 ± 0.9,67.2 ± 1.5,17.5 ± 0.4,23.6 ± 2.3,90.6 ± 0.3,18.9 ± 0.6,26.8 ± 1.2,87.5 ± 0.8,1.4,25.2 ± 0.3,"Inhibitory rates (%) (HL-7702 normal cells; 48 h): 30.6 ± 2.1%; IC50 (HL-7702 normal cells; HL-7702, 24 h): 101.8 ± 0.4 µM"
